# Experimental data reported in PubChem BioAssay (NCI).
# Values joined by “and” are separate entries in the source; they are usually repeats but may differ in a detail not shown here. Identical values can stand only once.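 Grown in 96-well plates, cells were treated for 48 hours with each compound at five concentrations. Insufficient inhibition: endpoint recorded as highest concentration tested. Abbreviation: GI50, concentration required for 50% inhibition of growth. TGI is the concentration that stops growth completely.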
# How the values were obtained:
# Experiment in all cases: NCI anticancer screen, dose series, 48 h
# [1] = tested on: A549 NSCLC
# [2] = tested on: COLO 205 colon
# [3] = tested on: DU-145 prostate
# [4] = tested on: HOP-92 NSCLC
# [5] = tested on: HS 578T breast
# [6] = tested on: HT29 colon
# [7] = tested on: MDA-MB-231 breast
# [8] = tested on: RPMI-8226 leukemia
# [9] = tested on: SK-MEL-5 melanoma
# [10] = tested on: UO-31 renal
compound,measurement,setting,value
O=C(O)Cn1ccnc1[N+](=O)[O-],TGI,[1],> 100 µM
same,TGI,[2],> 100 µM
same,TGI,[3],> 100 µM
same,TGI,[4],> 100 µM
same,TGI,[5],> 100 µM
same,TGI,[6],> 100 µM
same,TGI,[7],> 100 µM
same,TGI,[8],> 100 µM
same,TGI,[9],> 100 µM
same,TGI,[10],> 100 µM
COc1ccc2[nH]c(-c3ccccc3)cc2c1,GI50,[1],> 100 µM
same,TGI,[1],> 100 µM
same,GI50,[2],> 100 µM
same,TGI,[2],> 100 µM
same,GI50,[3],> 100 µM
same,TGI,[3],> 100 µM
same,GI50,[4],70 µM
same,TGI,[4],> 100 µM
same,GI50,[5],> 100 µM
same,TGI,[5],> 100 µM
same,GI50,[6],> 100 µM
same,TGI,[6],> 100 µM
same,GI50,[7],61.8 µM
same,TGI,[7],> 100 µM
same,GI50,[8],43.2 µM
same,TGI,[8],> 100 µM
same,GI50,[9],86600 nM
same,TGI,[9],> 100 µM
same,GI50,[10],> 100 µM
same,TGI,[10],> 100 µM
CN(C)C(=O)SC1=C(c2c(Cl)cccc2Cl)C(=O)c2ccccc21,GI50,[1],24.8 µM
same,TGI,[1],> 55.7 µM
same,GI50,[2],2.22 µM
same,TGI,[2],4.42 µM
same,GI50,[3],2.4 µM
same,TGI,[3],5.61 µM
same,GI50,[4],1.96 µM
same,TGI,[4],8.31 µM
same,GI50,[5],20 µM
same,TGI,[5],> 75.5 µM
same,GI50,[6],3.47 µM
same,TGI,[6],11.9 µM
same,GI50,[7],5.6 µM
same,TGI,[7],13.7 µM
same,GI50,[8],2.2 µM
same,TGI,[8],5.84 µM
same,GI50,[9],7160 nM
same,TGI,[9],19.2 µM
same,GI50,[10],2.18 µM
same,TGI,[10],6.51 µM
CN(C)CCCC1(c2ccc(F)cc2)OCc2cc(-c3cncc4ccccc34)ccc21 (stereo not drawn),GI50,[1],3.92 µM
same,TGI,[1],16.2 µM
same,GI50,[2],2.07 µM
same,TGI,[2],4.72 µM
same,GI50,[3],3.4 µM
same,TGI,[3],11.8 µM
same,GI50,[4],1.58 µM
same,TGI,[4],8.81 µM
same,GI50,[5],2.78 µM
same,TGI,[5],11.6 µM
same,GI50,[6],2.36 µM
same,TGI,[6],8.23 µM
same,GI50,[7],2.1 µM
same,TGI,[7],6.57 µM
same,GI50,[8],2.51 µM
same,TGI,[8],5.96 µM
same,GI50,[9],1770 nM
same,TGI,[9],3.2 µM
same,GI50,[10],1.53 µM
same,TGI,[10],4.41 µM
CN(C)CCCN1c2ccccc2Sc2ccc(Cl)cc21,GI50,[1],3.31 µM and 3.37 µM
same,TGI,[1],11.3 µM and 14.1 µM
same,GI50,[2],1.89 µM and 2.85 µM
same,TGI,[2],3.77 µM and 7.68 µM
same,GI50,[3],11.7 µM and 11.2 µM
same,TGI,[3],24.1 µM and 23.4 µM
same,GI50,[4],1.82 µM
same,TGI,[4],8.71 µM
same,GI50,[5],4.32 µM and 3.77 µM
same,TGI,[5],24.4 µM and 21 µM
same,GI50,[6],3.26 µM and 3.96 µM
same,TGI,[6],10.8 µM and 13.6 µM
same,GI50,[7],1.99 µM and 2.1 µM
same,TGI,[7],5.35 µM and 6.87 µM
same,GI50,[8],13.6 µM
same,TGI,[8],32.6 µM
same,GI50,[9],1710 nM and 1770 nM
same,TGI,[9],3.11 µM and 3.35 µM
same,GI50,[10],2.89 µM and 3.46 µM
same,TGI,[10],13.7 µM and 17.2 µM
CCc1cccc(CC)c1/C=C/c1cncc(C(=O)NC)c1,GI50,[1],9.3 µM
same,TGI,[1],> 25 µM
same,GI50,[2],13.8 µM
same,TGI,[2],> 25 µM
same,GI50,[3],16.5 µM
same,TGI,[3],> 25 µM
same,GI50,[4],1.27 µM
same,TGI,[4],> 25 µM
same,GI50,[5],7.65 µM
same,TGI,[5],> 25 µM
same,GI50,[6],8.79 µM
same,TGI,[6],> 25 µM
same,GI50,[7],13.2 µM
same,TGI,[7],> 25 µM
same,GI50,[8],9.46 µM
same,TGI,[8],> 25 µM
same,GI50,[9],5710 nM
same,TGI,[9],> 16.2 µM
same,GI50,[10],8.8 µM
same,TGI,[10],> 25 µM
Cc1ccc(/C=C2\CNC/C(=C\c3ccc(C)cc3)C2=O)cc1,GI50,[1],0.861 µM
same,TGI,[1],2.9 µM and > 27.1 µM
same,GI50,[2],1.45 µM
same,TGI,[2],2.78 µM and 7.3 µM
same,TGI,[3],16 µM
same,GI50,[4],2.21 µM
same,TGI,[4],5.49 µM and 14.5 µM
same,TGI,[5],> 100 µM
same,GI50,[6],0.392 µM
same,TGI,[6],1.41 µM and 3.04 µM
same,TGI,[7],> 24.6 µM
same,TGI,[8],0.69 µM
same,GI50,[9],2100 nM
same,TGI,[9],4.1 µM and 6.03 µM
same,TGI,[10],3.14 µM and 3.25 µM
CC[C@H](C)[C@H](NC(=O)[C@H]1CCCCN1C)C(=O)N(C)[C@H](C[C@@H](OC(C)=O)c1nc(C(=O)N[C@@H](Cc2ccccc2)C[C@H](C)C(=O)OC)cs1)C(C)C,GI50,[1],0.000523 µM and 0.0025 µM
same,TGI,[1],> 25 µM
same,GI50,[2],0.000208 µM and < 0.0025 µM
same,TGI,[2],0.00119 µM and < 0.0025 µM
same,GI50,[3],0.000208 µM
same,GI50,[4],0.765 µM
same,TGI,[4],> 25 µM
same,GI50,[5],0.000504 µM and 0.0025 µM
same,TGI,[5],6.9 µM
same,GI50,[6],0.000251 µM and < 0.0025 µM
same,TGI,[6],0.0137 µM and < 0.0025 µM
same,GI50,[7],0.00102 µM and 0.0025 µM
same,TGI,[7],> 25 µM
same,TGI,[8],8.97 µM
same,GI50,[9],0.0909 nM and < 2.5 nM
same,TGI,[9],0.00455 µM and < 0.0025 µM
same,GI50,[10],0.0032 µM and 0.0025 µM
same,TGI,[10],> 25 µM
C/C(=N\n1c(N)c(C#N)c(-c2ccc(Cl)cc2)c(C#N)c1=O)c1ccncc1,GI50,[1],7.58 µM
same,TGI,[1],65.4 µM
same,GI50,[2],> 100 µM
same,TGI,[2],> 100 µM
same,GI50,[3],11.1 µM
same,TGI,[3],44.7 µM
same,GI50,[4],0.61 µM
same,TGI,[4],4.17 µM
same,GI50,[5],6.4 µM
same,TGI,[5],75.8 µM
same,GI50,[6],> 100 µM
same,TGI,[6],> 100 µM
same,GI50,[7],12.6 µM
same,TGI,[7],44.2 µM
same,GI50,[8],7.96 µM
same,TGI,[8],69.7 µM
same,GI50,[9],21800 nM
same,TGI,[9],> 100 µM
same,GI50,[10],7.33 µM
same,TGI,[10],> 100 µM
COc1ccc(-c2cc(/C=C/C(=O)c3cc(OC)c(OC)c(OC)c3)[nH]n2)cc1OC,GI50,[1],2.39 µM
same,TGI,[1],9.34 µM
same,GI50,[2],1.75 µM
same,TGI,[2],3.57 µM
same,GI50,[3],1.83 µM
same,TGI,[3],4.12 µM
same,GI50,[4],1.61 µM
same,TGI,[4],5.48 µM
same,GI50,[5],2.91 µM
same,TGI,[5],22.2 µM
same,GI50,[6],1.3 µM
same,TGI,[6],2.73 µM
same,GI50,[7],2.02 µM
same,TGI,[7],13.5 µM
same,GI50,[8],0.298 µM
same,TGI,[8],1.66 µM
same,GI50,[9],1580 nM
same,TGI,[9],2.93 µM
same,GI50,[10],1.27 µM
same,TGI,[10],2.59 µM
